Data on 13 compounds can be found in patent publication US7157481B2 (priority 1997, dated 2007).

For data set [1], the system named is caterpillars of the diamond-back moth (Plutella xylostella). The data set is described as follows: Plutella Test. It is filed as in vivo. To be noted: cabbage leaves dipped, 0.1 % by weight active compound; after 7 days. As to the method:
(§1) To produce a suitable preparation of active compound, 1 part by weight of active compound is mixed with the stated amounts of solvent and emulsifier, and the concentrate is diluted with water to the desired concentration.
Cabbage leaves (Brassica oleracea) are treated by being dipped into the preparation of active compound of the desired concentration and populated with caterpillars of the diamond-back moth (Plutella xylostella) while the leaves are still moist.
After 7 days, the kill is determined and expressed in per cent. An efficacy of 100% means that all caterpillars have been killed, while an efficacy of 0% means that none of the caterpillars have been killed.

The nature of data set [2]: log P determination by HPLC (EEC Directive 79/831 Annex V. A8, gradient method). The class given is physicochemical. To be noted: acetonitrile/0.1% aqueous phosphoric acid.
The test system of data set [3] is Venturia inaequalis. The data set is described as follows: Venturia Test (Apple)/protective. To be noted: young apple plants sprayed at 100 g/ha, protective; evaluation 12 days after inoculation. It is filed as in vivo. As to the method:
Venturia Test (Apple)/protective
as §1
To test for protective activity, young plants are sprayed with the preparation of active compound at the stated application rate. After the spray coating has dried on, the plants are inoculated with an aqueous conidia suspension of the causative organism of apple scab Venturia inaequalis and then remain in an incubation cabin at approximately 20° C. and 100% relative atmospheric humidity for 1 day.
The plants are then placed in a greenhouse at approximately 21° C. and a relative atmospheric humidity of approximately 90%.
Evaluation is carried out 12 days after the inoculation. 0% means an efficacy which corresponds to that of the control, while an efficacy of 100% means that no infection is observed.

The test system of data set [4] is larvae of the mustard beetle (Phaedon cochleariae). Briefly: Phaedon Larvae Test. The class given is in vivo. To be noted: cabbage leaves dipped, 0.1 % by weight active compound; after 7 days. As to the method:
as §1
Cabbage leaves (Brassica oleracea) are treated by being dipped into the preparation of active compound of the desired concentration and populated with larvae of the mustard beetle (Phaedon cochleariae) while the leaves are still moist.
After 7 days, the kill is determined and expressed in per cent. An efficacy of 100% means that all beetle larvae have been killed, while an efficacy of 0% means that no beetle larvae have been killed.

For data set [5], the system named is Leptosphaeria nodorum. The data set is described as follows: Leptosphaeria nodorum Test (Wheat)/protective. The class given is in vivo. Conditions: young wheat plants sprayed at 250 g/ha, protective; evaluation 10 days after inoculation. On the procedure: Leptosphaeria nodorum Test (Wheat)/protective
as §1
To test for protective activity, young plants are sprayed with the preparation of active compound at the stated application rate. After the spray coating has dried on, the plants are sprayed with a spore suspension of Leptosphaeria nodorum. The plants remain in an incubation cabin at 20° C. and 100% relative atmospheric humidity for 48 hours.
The plants are then placed in a greenhouse at a temperature of approximately 15° C. and a relative atmospheric humidity of 80%.
Evaluation is carried out 10 days after the inoculation. 0% means an efficacy which corresponds to that of the control, while an efficacy of 100% means that no infection is observed.

Each structure is given as a SMILES string.

For `CCN(CC)Cc1ccc(CNC(=O)c2snc(Cl)c2Cl)cc1` [Example 14], the “Kill in % after 7 d” value in data set [1] turned out to be 100%. In addition, the chromatographic logP (as a rule, a lipophilicity value derived from retention on a column) in data set [2] was found to be 1.39.

As to `CCC(CC)c1ccc(NC(=O)c2snc(Cl)c2Cl)cc1`, the melting point (in general, the temperature, or range, at which the solid turns liquid) lay in the range of 98 to 99 °C.

Regarding `CN(C=O)CNC(=O)c1snc(Cl)c1Cl`, the melting point was 87 to 88 °C.

In turn, `Cc1ccc(NC(=O)c2snc(Cl)c2Cl)c(C)c1` gave a melting point of 171 to 172 °C.

Consider `O=C(NCCc1cccc(Oc2ccc(Cl)cc2)c1)c1snc(Cl)c1Cl` [Example 6], for which, in data set [3], the Efficacy in % is 96%. For the same compound, the chromatographic logP in data set [2] turned out to be 4.79.

Compound `O=C(Nc1ccccc1C1CCCCCC1)c1snc(Cl)c1Cl` [Example 20] returned a melting point of 122 to 125 °C. The “Kill in % after 7 d” value in data set [1] was 100%.

`O=C(NCCOS(=O)OCCNC(=O)c1snc(Cl)c1Cl)c1snc(Cl)c1Cl` returned a melting point of 70 to 75 °C.

For `O=C(Nc1ccccc1-c1ccccc1)c1snc(Cl)c1Cl` [Example 21], the melting point is 83 to 84 °C (dec.). Further, the “Kill in % after 7 d” value in data set [1] was 100%.

Compound `CC(C)(C)c1ccc(NC(=O)c2snc(Cl)c2Cl)cc1` [Example 3] registered a melting point of 148 to 149 °C. Moreover, the “Kill in % after 7 d” value in data set [4] turned out to be 100%.

Turning to `CCC(C)c1ccc(NC(=O)c2snc(Cl)c2Cl)cc1` (stereo not drawn) [Example 16], the melting point fell in the range of 83 to 85 °C. In addition, the Efficacy in % in data set [5] worked out at 81%.

As for `O=C(NCCc1ccc(-c2ccc(Cl)cc2)cc1)c1snc(Cl)c1Cl` [Example 23], the melting point fell in the range of 135 to 136 °C. For the same compound, in data set [1], the “Kill in % after 7 d” value is 100%.

`CC(C)(C)CSCc1ccc(NC(=O)c2snc(Cl)c2Cl)cc1` displayed a melting point of 91 to 92 °C.

Consider `CC(C)(C)c1ccc(CCNC(=O)c2snc(Cl)c2Cl)cc1` [Example 4], for which the “Kill in % after 7 d” value in data set [1] worked out at 100%. The compound also had a chromatographic logP in data set [2] of 4.81.
